Assay results published in ChEMBL document CHEMBL1157539, “Thousands of chemical starting points for antimalarial lead identification” (Nature, 2010).

System: Plasmodium falciparum
Assay: GSK_TCMDC: Inhibition of Plasmodium falciparum 3D7 in whole erythrocytes, using parasite LDH activity as an index of growth.
Assay type: functional, organism-based
Conditions: Plasmodium falciparum, 3D7

| SMILES | XC50 [nM] |
| --- | --- |
| C=C[C@]1(C)C[C@@H](OC(=O)c2cncn(COC)c2=O)[C@]2(C)[C@H](C)CC[C@]3(CCC(=O)[C@H]32)[C@@H](C)[C@@H]1O | 878 |
| CC(C)c1ccc2c(c1)c(SC(C)(C)C)c(CC(C)(C)C#N)n2Cc1ccc(Cl)cc1 | 225 |
| O=C1c2ccccc2-n2c1nc1ccccc1c2=O [TRYPTANTHRIN] | 856 |
| CC1(C)NC(N)=NC(=N)N1OCCCCOc1ccccc1 | 3.2 |
| Fc1ccc2[nH]c(-c3cccc(-c4cccc(CNCC5CCCO5)c4)c3)nc2c1 (stereo not given) | 513 |
| O=C(Nc1cccc(OCc2ccccc2)c1)c1ccc(CN2CCC(Cc3ccccc3)CC2)cc1 | 850 |
| CCNc1cc(C)nc(Nc2ccc(NC(=O)c3ccccc3Br)cc2)n1 | 742 |
| Cc1cccc2nc(-c3cccc(-c4ccc(NC(=O)C(C)C(=O)NC(C)C)cc4)c3)[nH]c12 (stereo not given) | 1000 |
| Cc1ccc2[nH]c(Nc3ccc(Nc4nc5cc(C)ccc5[nH]4)c(C)c3)nc2c1 | 769 |
| Cc1[nH]c(C)c(-c2ccc(-c3ccccc3Cl)nc2)c(=O)c1Cl | 217 |
| CCCN(CCC)C(=S)N/N=C1/C(=O)Nc2ccccc21 | 815 |
| COc1ccc(-c2ccc(NC(=O)c3cccc(Cl)c3)c(F)c2)cc1CNC(C)C | 895 |
| CN(C)CCNC(=O)c1ccc2c(c1)ncn2-c1cc(OCc2ccccc2C(F)(F)F)c(C(N)=O)s1.CN(C)CCNC(=O)c1ccc2ncn(-c3cc(OCc4ccccc4C(F)(F)F)c(C(N)=O)s3)c2c1 | 809 |
| c1ccc(CNCc2ccc(-c3ccc(-c4nc5ccccc5[nH]4)cc3)cc2)cc1 | 338 |
| C=CCc1cccc(CN2CCC(c3cc(O)nc(-c4ccccn4)n3)CC2)c1O | 1100 |
| Cc1ccccc1NC(=O)NC1CCN(CCCCCNC(=O)/C=C/c2ccc(Cl)c(Cl)c2)CC1 | 769 |
| ON=C1CCc2cc(-c3cc(-c4ccc(OC5CCNCC5)cc4)oc3-c3ccncc3)ccc21 | 157 |
| Cc1ccc(Cl)cc1N1CCN(CCCNC(=O)C2CCN(c3nc4ccccc4[nH]3)CC2)CC1 | 895 |
| O=C(Nc1ccc2c(c1)CCN(C1CCC1)CC2)c1ccc(-c2cn3ccccc3n2)cc1 | 879 |
| Cc1cc(Nc2ncc3c(n2)N(C2CCC2)CC3)ccc1N1CCN(C)CC1 | 1190 |
| Cc1ccc2[nH]c(-c3ccc(C=CC(=O)NC4CCN(Cc5ccccc5)CC4)cc3)nc2c1 | 684 |
| Cc1cccc2nc(-c3ccc(-c4cccc(CN5CCCC(O)C5)c4)s3)[nH]c12 (stereo not given) | 942 |
| CCCN1CCN(CCCNC(=O)c2cc3c(Cl)nc4ccc(C)cc4c3s2)CC1 | 802 |
| CCN(CCCN1CCCCC1)c1cc(C)nc(Nc2ccc(Cl)cc2)n1 | 385 |
| Cc1nc(N)nc(N)c1OCc1cccc2c1ccc1ccccc12 | 98.8 |

| SMILES | XC50 [nM] |
| --- | --- |
| O=C1COc2ccc(CNC3CCC(O)(CCc4ccnc5cc6c(cc45)OCCO6)CC3)nc2N1 (stereo not given) | 931 |
| O=C(Nc1ccc(Oc2ccccc2)cc1)N1CCC(CN2CCC(c3c[nH]c4ccccc34)CC2)CC1 | 606 |
| CC(=O)Nc1ccc2[nH]cc(C3CCN(CC4CCN(C(=O)/C=C/c5ccc(Cl)c(Cl)c5)CC4)CC3)c2n1 | 161 |
| O=c1cc(NCCCCNCc2cccc(Br)c2)[nH]c2ccccc12 | 729 |
| COc1ccc2nccc([C@@H](O)CN3CCC(NC(=O)c4cccc(-c5cc(C)no5)c4)CC3)c2c1 | 345 |
| COc1ccc(C(=O)C2CC2CN(C)CC(O)c2cc(C)c(OC)cc2C)cc1 (stereo not given) | 968 |
| Cc1c(C(=O)N[C@@H](C)c2ccccc2)c2cc(O)c(Br)cc2n1C1CCCCC1 | 840 |
| O=C1CSc2ccc(CNC3CCN(CCc4c(Cl)cnc5ccc(Cl)cc45)CC3)nc2N1 | 229 |
| CC(Cl)=CCc1c(C)nc2c(ccc3ccccc32)c1O | 198 |
| COc1ccc(NC2=C(c3ccccc3)C(=O)c3ccccc32)cn1 | 705 |
| CN(c1ccccc1C(=O)Nc1cc(Cl)ccc1Oc1ccccc1)S(=O)(=O)c1ccccc1 | 742 |
| CN1CCN(CCCN(Cc2csc(-c3ccc(CNCc4ccccc4)cc3)n2)S(=O)(=O)c2ccccc2Cl)CC1 | 876 |
| CN(C)CCOc1cc(NC(=O)Nc2ccc(-c3ccncc3)c(C(F)(F)F)c2)ccc1Cl | 991 |
| COc1ccc(-c2cccc(NC(=O)c3cccc(C#N)c3)c2)cc1CN(C)CCO | 823 |
| Cc1cc(N2CCCCC2)nc2ccc(NC(=O)c3cncc(Br)c3)cc12 | 718 |
| O=S(=O)(c1cccc2cccnc12)N1CCN(C2CCCCC2)CC1 | 765 |
| COc1ccc2c(NCCc3ccccc3)cc(-c3ccccc3)nc2c1 | 987 |
| CCC(CC)n1c(COC)cc2c3c(N)nc(N)nc3ccc21 | 5.57 |
| Oc1ccc2[nH]cc(C3=CCN(Cc4ccccc4)CC3)c2c1 | 983 |
| O=C(NCCCCN1CCC(c2ccc3c(c2O)CCCC3)CC1)c1ccc(-c2ccc(Cl)cc2)cc1 | 754 |
| NC(=O)c1ccsc1NC(=O)CNC(c1ccccc1)c1ccccc1 | 938 |
| Cc1ccc2nc(C)cc(N/N=C/c3cccc([N+](=O)[O-])c3)c2c1 | 876 |
| COc1ccc(-c2c(C(F)(F)F)nn(C)c2NC(=O)Nc2ccc(F)cc2F)cc1 | 797 |
| CC(C)N1CCN(C(=O)c2ccc(CNCCCN3CCN(c4cccc(Cl)c4Cl)CC3)s2)CC1 | 716 |
| Cc1ccc2nc(C)cc(NC(=O)Nc3ccc(N(C)C)cc3)c2c1 | 541 |

| SMILES | XC50 [nM] |
| --- | --- |
| O=c1c2ccccc2[nH]c2nc3ccccc3c(Nc3ccccc3)c12 | 141 |
| CNc1nc(N/N=C/c2cc([N+](=O)[O-])c(Cl)cc2Cl)nc(Nc2cccc(C(F)(F)F)c2)n1 | 729 |
| COc1ccc2[nH]c(C)cc(=NN=Cc3ccccc3F)c2c1 | 365 |
| CNc1ccc(CNCc2cccc(-c3ccc(-c4nc5cc(C(F)(F)F)ccc5[nH]4)cc3)c2)cc1 | 112 |
| Cn1cncc1-c1cc2c(Nc3ccc(OCc4ccccc4)cc3)ncnc2cn1 | 268 |
| CC(C)NCc1ccc(-c2ccc(NS(=O)(=O)c3cccc4cccnc34)cc2)cc1 | 807 |
| FC(F)(F)c1ccc2[nH]ccc(=NN=Cc3ccccc3)c2c1 | 1170 |
| O=C(Nc1cccc(-c2ccc(CN3CCC(O)CC3)cc2)c1)c1ccc(Cl)cc1 | 961 |
| C[C@H]1CN(Cc2cccc(-c3cc(CNC(=O)c4cccc(CN5CCN(CCOc6ccccc6)CC5)c4)ccc3F)c2)CCN1 | 1110 |
| Cc1ccc(-c2nc(Nc3ccncc3)c3ccccc3n2)s1 | 830 |
| c1ccc(COc2ccc(C3CCCCC3)cc2)nc1 | 774 |
| O=C(Nc1nc(-c2ccccn2)cc2ccccc12)c1cccc(Cl)c1 | 754 |
| O=c1nc(C=Cc2ccc(Br)cc2)oc2ccccc12 | 1050 |
| FC(F)(F)c1cccc(-c2cc(NCCCn3ccnc3)nc(-c3ccncc3)n2)c1 | 105 |
| CCOc1cc2ncnc(Nc3ccc(OCc4ccccc4OC)c(OC)c3)c2cc1OCC | 879 |
| O=C(CN1CCCC1)Nc1cccc(C(=O)Nc2cccc(C(F)(F)F)c2)c1 | 510 |
| CC(C)(C)c1cc(C(=O)N2CCN(c3cnccn3)CC2)n(Cc2ccccc2)n1 | 1140 |
| CCNc1cc(CCCC(=O)OCC)nc(Nc2ccc(C)cc2)n1 | 771 |
| CCCNC(=O)Nc1cc2cc(-c3ccc(CN4CCCC4)cc3)ccc2n2c(C)nnc12 | 1500 |
| CC1CN(c2ncc(-c3ccc(CNC4Cc5ccccc5C4)cc3)cn2)CC(C)N1 (stereo not given) | 1160 |
| FC(F)(F)c1ccc2[nH]c(-c3ccc(-c4ccc(CN5CCN(c6ccncc6)CC5)cc4)cc3)nc2c1 | 62.4 |
| COc1cc(CCNC(=O)Cc2ccc3ccccc3c2)ccc1OCc1ccccc1 | 1020 |
| C=CCn1c(Sc2ccc(C#N)c([N+](=O)[O-])c2)nnc1-c1ccc(OC)cc1 | 795 |
| O=[N+]([O-])c1cccc(NC(=S)N2CCCN(Cc3ccc(Cl)cc3Cl)CC2)c1 | 925 |
| O=C(NC1CC1)c1ccc(N2CCC(COc3cccc(F)c3)CC2)nc1 | 1240 |

| SMILES | XC50 [nM] |
| --- | --- |
| COc1cccc(C(=O)NCc2cccs2)c1OCc1ccccc1 | 921 |
| OCCC1CCN(Cc2ccc(-c3ccc(-c4nc5ccccc5[nH]4)cc3)cc2)CC1 | 768 |
| O=C(N[C@H]1CCCC[C@H]1C(=O)O)c1ccccc1 | 781 |
| CC=Cc1cc(Cc2c[nH]c(=N)[nH]c2=N)cc(CCC)c1OC | 783 |
| COc1cc(Br)c(NC(=O)Nc2ccc(C(F)(F)F)c(O[C@@H]3CCN(C)C3)c2)cc1OC | 626 |
| COc1cc(F)c2ncc(Cl)c(C(O)CN3CCC(NC(=O)c4ccc5c(n4)NC(=O)CO5)CC3)c2c1 (stereo not given) | 754 |
| CCOc1ccc(C(C)NC(=O)C2COc3ccccc3O2)cc1OCC (stereo not given) | 899 |
| COc1ccc(CCOc2c(C)nc(N)nc2N)cc1OC | 69.6 |
| CC[C@H]1CN2CC[C@H]1C[C@H]2[C@H](O)c1cc(-c2ccc(F)cc2)nc2ccc(OC)cc12 | 49.7 |
| CCCNCc1ccc(-c2ccc(CN(Cc3ccc4c(c3)OCO4)C(=O)Cc3cccnc3)cc2)nc1 | 862 |
| CN1CCCC(CN2CCN(Cc3ccc(-c4ccc(-c5nc6cc(F)ccc6[nH]5)s4)cc3)CC2)C1 (stereo not given) | 127 |
| COc1ccccc1CCNc1nc(C)cc(NCCC(=O)NCCOc2ccccc2)n1 | 1370 |
| CCc1ccc(NC(=O)N(CCCn2ccnc2)Cc2csc(-c3ccc(CNCc4ccccc4)cc3)n2)cc1 | 757 |
| O=C(N/C=N/c1cc([N+](=O)[O-])c(-c2cccnc2)n1-c1ccc(O)cc1)c1ccccc1 | 299 |
| O=C(NC1CCCC1)c1ccc(N2CCC(NCc3cc4cc(Cl)ccc4[nH]3)CC2)cc1 | 1220 |
| COc1nc2c(CCN3CCC(NCc4ccc5c(n4)NC(=O)CO5)CC3)c(Cl)cnc2cc1F | 418 |
| CC(C)CN1CCCN(Cc2cccc(NC(=O)c3ccc(Cl)c(Cl)c3)c2)CC1 | 893 |
| CN(C)c1nc2cc(-n3cnc4cc(-c5ccc(Cl)cc5)sc4c3=O)ccc2n1CCCN1CCCCC1 | 845 |
| O=C(CCc1nc2c(cnn2-c2ccccc2)c(=O)[nH]1)NC1CCSc2ccccc21 (stereo not given) | 1060 |
| COc1cccc2c(Nc3ccccc3C)nc(Nc3ccccc3C)nc12 | 679 |
| O=C(Nc1ccc(-c2ccccc2)cc1)Nc1cccc(OCCN2CCCC2)c1 | 935 |
| O=C(CCCc1ccccc1)Nc1cccc(N2CCC(N3CCN(c4ccccc4O)CC3)CC2)c1 | 786 |
| Cn1nccc1C(=O)NCCNCc1ccc(-c2ccc(-c3nc4cc(C(F)(F)F)ccc4[nH]3)s2)cc1 | 186 |
| O=C(Nc1ccc(Cl)c(C(F)(F)F)c1)c1ccc(C(=O)Nc2ccc(Cl)c(C(F)(F)F)c2)cc1 | 1000 |
| Oc1ccc(CN2CCN(CCOC(c3ccccc3)c3ccccc3)CC2)cc1Cl | 806 |
